Measured values from US8716318B2, “Pyridone sulfonamides and pyridone sulfamides as MEK inhibitors” (Ardea Biosciences, priority 2006, dated 2014).

Assays:
[1] = target: T1, human GST-MEK1^CA (Ser218Asp, Ser222Asp) (Homo sapiens, UniProt Q02750, S218D/S222D); experiment: MEK1 kinase assay (generation of IC50 data, 33P filter assay with ERK2 and MBP); type: biochemical; details: ATP
T1 construct: GST; made in house; host or cells: Escherichia coli
From the text: Materials and preparation of reagents: Human GST-MEK1 and the constitutively active allele GST-MEK1^CA (harboring the mutations Ser218Asp and Ser222Asp) were subcloned into the yeast expression vector pGEM4Z (Promega, Madison, Wis.) from the wild type human MEK1 cDNA. GST-MEK1^CA was expressed in Escherichia coli and partially purified using Glutathione Sepharose 4B affinity resin (Amersham Pharmacia Biotech, Piscataway, N.J.). The ERK2 allele was subcloned from MAPK2/Erk2 cDNA (wild type) in pUSEamp (Upstate Biotechnology, Inc., Waltham, Mass.) into the vector pET21a (Novagen, Madison, Wis.) resulting in an N-terminal histidine-tagged mouse ERK2 allele. ERK2 was expressed and purified to homogeneity [Zhang, 1993 #33]. Myelin basic protein (MBP) was purchased from Gibco BRL (Rockville, Md.). EasyTides adenosine 5′-triphosphate (ATP) ([γ-^33P]) (NEN Perkin Elmer, Wellesley, Mass.) was the source of radiolabel for all kinase reactions. Activated Raf-1 (truncated) and activated MAPKinase 2/ERK2 were purchased from Upstate, Inc. (Lake Placid, N.Y.). 4-20% Criterion Precast gels were purchased from Bio-Rad (Hercules, Calif.).
Determination of enzymatic activity: Compounds were diluted from dimethylsulfoxide (DMSO) stocks into 1×HMNDE (20 mM HEPES pH 7.2, 1 mM MgCl2, 100 mM NaCl, 1.25 mM DTT, 0.2 mM EDTA). A typical 25-microliter assay contained 0.002 nanomoles MEK1^CA, 0.02 nanomoles ERK2, 0.25 nanomoles MBP, 0.25 nanomoles unlabeled ATP, and 0.1 μCi [γ^33P] ATP. The screening assay essentially comprised four additions. Five μl of diluted compound were dispensed to 96-well assay plates. Ten μl of 2.5× enzyme cocktail (MEK1^CA and ERK2 only) were then added to each well followed by a pre-incubation for 30 minutes at ambient temperature. Ten μl of 2.5× substrate cocktail (labeled and unlabeled ATP plus MBP) were then added, followed by incubation for 60 minutes at ambient temperature. Finally, 100 μl of 10% trichloroacetic acid (TCA) were added and incubated for 30 minutes at room temperature to halt the reaction and precipitate radiolabeled protein products. Reaction products were harvested on glass fiber 96 well filter plates prewetted with water and 1% pyrophosphate. The filter plate was then washed 5 times with water. Water was displaced by absolute ethanol and the plate was allowed to air dry for 30 minutes at room temperature. A back seal was applied manually and 40 μl of scintillation cocktail were dispensed to each well. A top seal was applied and the plate was counted in the TopCount for two seconds per well.

[2] = EC50 (no method described)
[3] = test system: A375 cells; experiment: Growth inhibition assay (GI50), A375 cells, CellTiterGlo; type: cell-based; details: Homo sapiens, A-375, 48 hr, ATP levels
Protocol: For growth inhibition experiments, A375 cells were plated in white 384-well microplates at 1000 cells/[…]/well. After 24 hr, […] of a 5× drug stock solution was added. All drugs were initially prepared as 200× stocks in DMSO, such that final DMSO concentration was 0.5%. Cells were incubated for 48 hr at 37° C. and ATP levels were determined using CellTiterGlo (Promega, Madison, Wis.). A control MEK inhibitor was used to determine the ATP level corresponding to full growth inhibition and the concentration of test compound that gave ATP levels midway between full growth inhibition and vehicle only ATP levels was determined to be the GI50 using non-linear regression (GraphPad Prism 4).

[4] = test system: THP-1; experiment: Growth inhibition assay (GI50), THP-1; type: cell-based; details: Homo sapiens

T1 sequence (Q02750 whole entry S218D/S222D): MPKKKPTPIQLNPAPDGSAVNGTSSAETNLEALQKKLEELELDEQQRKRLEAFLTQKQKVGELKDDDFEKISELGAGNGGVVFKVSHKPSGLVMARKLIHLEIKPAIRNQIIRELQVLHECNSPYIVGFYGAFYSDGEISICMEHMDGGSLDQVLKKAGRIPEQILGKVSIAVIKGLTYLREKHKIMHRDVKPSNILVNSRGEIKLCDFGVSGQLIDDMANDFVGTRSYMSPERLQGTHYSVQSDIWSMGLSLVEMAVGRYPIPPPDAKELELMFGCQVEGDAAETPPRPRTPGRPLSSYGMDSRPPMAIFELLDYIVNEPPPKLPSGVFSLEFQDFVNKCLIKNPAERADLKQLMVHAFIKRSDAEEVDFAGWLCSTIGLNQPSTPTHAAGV

Structure (SMILES) | IC50 [1] | EC50 [2] | GI50 [3] | GI50 [4]
Cn1cc(NS(=O)(=O)C2CC2)c(Nc2ccc(I)cc2F)cc1=O [Example 1, N-(4-(2-fluoro-4-iodophenylamino)-1-methyl-6-oxo-1,6-dihydropyridin-3-yl)cyclopropanesulfonamide] | 500 to 1000 nM | < 100 nM | < 100 nM | < 100 nM
Cn1cc(NS(=O)(=O)C2(CC(O)CO)CC2)c(Nc2ccc(I)cc2F)cc1=O (stereo not drawn) [Example 2, 1-(2,3-dihydroxypropyl)-N-(4-(2-fluoro-4-iodophenylamino)-1-methyl-6-oxo-1,6-dihydropyridin-3-yl)cyclopropane-1-sulfonamide] | 500 to 1000 nM | 500 to 1000 nM | > 1000 nM | > 1000 nM
Cn1cc(NS(=O)(=O)C2CC2)c(Nc2ccc(Br)cc2F)c(Cl)c1=O [Example 3, N-(5-chloro-4-(2-fluoro-4-bromophenylamino)-1-methyl-6-oxo-1,6-dihydropyridin-3-yl)cyclopropanesulfonamide] | 500 to 1000 nM | 100 to 500 nM | > 1000 nM | > 1000 nM
Cn1cc(NS(=O)(=O)C2CC2)c(Nc2ccc(I)cc2F)c(F)c1=O [Example 4, N-(5-fluoro-4-(2-fluoro-4-iodophenylamino)-1-methyl-6-oxo-1,6-dihydropyridin-3-yl)cyclopropanesulfonamide] | < 100 nM | < 100 nM | < 100 nM | > 1000 nM
Cc1c(Nc2ccc(I)cc2F)c(NS(=O)(=O)C2CC2)cn(C)c1=O [Example 5, N-(4-(2-fluoro-4-iodophenylamino)-1,5-dimethyl-6-oxo-1,6-dihydropyridin-3-yl)cyclopropanesulfonamide] | < 100 nM | < 100 nM |  | 
CN(C)S(=O)(=O)Nc1cn(C)c(=O)cc1Nc1ccc(I)cc1F [Example 6, N-(4-(2-fluoro-4-iodophenylamino)-1-methyl-6-oxo-1,6-dihydropyridin-3-yl)dimethyl-1-sulfamide] | > 1000 nM | 500 to 1000 nM | 500 to 1000 nM | 100 to 500 nM
Cn1cc(NS(=O)(=O)C2CC2)c(Nc2ccc(Br)cc2F)c(F)c1=O [Example 7, Cyclopropanesulfonic acid [4-(4-bromo-2-fluoro-phenylamino)-5-fluoro-1-methyl-6-oxo-1,6-dihydro-pyridin-3-yl]-amide] | 500 to 1000 nM |  | > 1000 nM | > 1000 nM

Now from value to compound:

IC50 [1] | EC50 [2] | GI50 [3] | GI50 [4] | Structure (SMILES)
> 1000 nM |  |  |  | Cn1cc(NS(=O)(=O)C2CC2)c(Nc2ccc(Br)cc2F)cc1=O [Example 8, Cyclopropanesulfonic acid [4-(4-bromo-2-fluoro-phenylamino)-1-methyl-6-oxo-1,6-dihydro-pyridin-3-yl]-amide]
< 100 nM | < 100 nM | 500 to 1000 nM | > 1000 nM | Cn1cc(NS(=O)(=O)C2CC2)c(Nc2ccc(I)cc2F)c(Cl)c1=O [Example 9, Cyclopropanesulfonic acid [5-chloro-4-(2-fluoro-4-iodo-phenylamino)-1-methyl-6-oxo-1,6-dihydro-pyridin-3-yl]-amide]
100 to 500 nM | < 100 nM |  |  | Cc1c(Nc2ccc(I)cc2F)c(NS(=O)(=O)C2(Cl)CC2)cn(C)c1=O [Example 10, 1-Chloro-Cyclopropanesulfonic acid [4-(2-fluoro-4-iodo-phenylamino)-1,5-dimethyl-6-oxo-1,6-dihydro-pyridin-3-yl]-amide]
< 100 nM | 100 to 500 nM |  |  | Cn1cc(NS(=O)(=O)C2(CC(O)CO)CC2)c(Nc2ccc(I)cc2F)c(F)c1=O (stereo not drawn) [Example 11, 1-(2,3-Dihydroxy-propyl)-cyclopropanesulfonic acid [5-fluoro-4-(2-fluoro-4-iodo-phenylamino)-1-methyl-6-oxo-1,6-dihydro-pyridin-3-yl]-amide]
< 100 nM | < 100 nM |  |  | Cn1cc(NS(=O)(=O)C2(CC(=O)CO)CC2)c(Nc2ccc(I)cc2F)c(F)c1=O [Example 12, 1-(3-Hydroxy-2-oxo-propyl)-cyclopropanesulfonic acid [5-fluoro-4-(2-fluoro-4-iodo-phenylamino)-1-methyl-6-oxo-1,6-dihydro-pyridin-3-yl]-amide]
> 1000 nM |  | > 1000 nM | > 1000 nM | Cn1cc(NS(=O)(=O)NCC(O)CO)c(Nc2ccc(I)cc2F)cc1=O (stereo not drawn) [Example 13]
